Laboratory results: patent publication US20240216338A1, “NEW FORMULATIONS AND USES” (ALZECURE PHARMA AB, priority 2021, published 2024)
Read-outs that look alike come from different tables or passages of the source. Where no end group is shown, it is not given here.

Experiments:
healthy volunteers [1] = conditions: difference from placebo, cited from earlier work
healthy volunteers [2] = conditions: difference from placebo, cited from earlier work; remark: listed apart in the source
healthy volunteers [3] = assay: Laser algesimetry, laser evoked potentials (LEP), N2-P2 Peak-to-Peak amplitude; type: in vivo, human; conditions: for PtP Mean Difference: topical, difference from placebo, day 4 (AUC)
Procedure: Healthy volunteers were screened for eligibility from Day −28 to Day −2 before first treatment. During screening also, a training session (without study medication) was performed in order to introduce subjects to the testing and rating procedures. Prior to testing the laser evoked potentials (LEPs) from healthy skin, the individual Laser Pain Threshold (LPT) was be determined for each volunteer.
(§1) At Day 1, Areas 1-4 were treated with 1 ml of the Compound 1 Gel (0.05 ml/cm^2) or placebo and were tested for changes in LEP-amplitudes and Visual Analog Scale Rating of Pain (VAS-P). Assessments were performed before and after (investigational medicinal product) IMP application. At Days 2 and 3, LEPs and VAS-P assessments will also be performed before and 1 h after the second and third application of IMP at the same time as on Day 1 (±1 h). At test Day 4, LEPs and VAS-P were evaluated for areas 1-4 at 1, 6 and 9 h after the 4th IMP application.
At the 2 h time point on Day 4, skin areas 5 and 6 will be UVR irradiated with 2 MED. LEPs, VAS-P, erythema (by skin reflection spectrometry (SRS)) and pin prick hyperalgesia (by weighted needle threshold (WNT)) were evaluated before and 1, 2, 3, 6 and 9 h after UVR. At the same time points, anti-inflammatory effects on the areas of UVR will be evaluated by SRS with the a-value being the measure of “redness”. […] One hour after IMP application and 24±1 h after UVR, LEPs and VAS-Pain were evaluated on areas 1-6. In addition, erythema (SRS) and pin prick hyperalgesia (WNT) were evaluated on areas 5 and 6. […]
Laser algesimetry is an experimental induction of pain by means of a contact-free thermo-nociceptive laser beam with a constant short duration (ms) and individually adjusted intensity above the pain threshold (determined at Screening). Objective and quantitative measurement of nociception is accomplished by the analysis of the contingent vertex EEG event-related potentials (somatosensory/radiant heat ERPs).
The study effects of the study medications (the Compound 1 Gel and placebo) were measured as a reduction in the PtP amplitude. […]

[4] = tested on: patients undergoing surgical removal of a mandibular third molar; assay: Molar extraction study (legacy), oral AZD1386, pain intensity VAS; type: in vivo, human; conditions: 95 mg oral vs placebo
Procedure: This was a single dose, randomised, double-blind, double dummy, placebo- and Naproxen controlled study to investigate the analgesic efficacy of AZD1386 95 mg in patients undergoing surgical removal of a partially or completely impacted mandibular third molar, where bone removal was judged to be needed. Naproxen 500 mg was included as a treatment arm, for assay sensitivity only.
Patients requesting pain relief, due to pain from the dental surgical area, within 6 hours after the end of the administration of the local anaesthetic (last anaesthetic dose) were randomised to 1 of 3 treatment arms: 40 patients received AZD1386 95 mg oral solution and Naproxen placebo capsule, 40 patients received AZD1386 placebo oral solution and Naproxen placebo capsule and 23 patients received AZD1386 placebo oral solution and Naproxen 500 mg (for assay sensitivity only). A visual Analogue Scale (VAS) was used for the assessment of pain intensity and pain on jaw movement. The VAS consists of an ungraduated 100 mm horizontal line with the left end (0 mm) marked “No pain” and the right end (100 mm) marked “Worst pain imaginable”. The patient indicated his/her present pain intensity and pain on jaw movement by drawing a vertical line across the scale on paper CRF pages. The pain intensity was rated by the patients immediately prior to administration of the investigational product, and subsequent assessments were performed at 15 min, 30 min, 45 min, 1 h, 1 h15 min, 1 h30 min, 1 h45 min, 2 h, 2 h30 min, 3 h, 4 h, 5 h, 6 h, 7 h, and 8 h after the start of administration of the investigational product.

[5] = oral medication; Quiding et al. PAIN 154 (2013); cited from earlier work
healthy volunteers [6] = conditions: for Cohen's d, VAS (0-5 min): Capsaicin, 95 mg oral vs placebo
healthy volunteers [7] = assay: VAS-Pain (post-laser pain); type: in vivo, human; conditions: for Mean (LEP induced VAS pain): n=24; for VAS Mean Difference: topical, difference from placebo, day 4 (AUC)
Procedure: as §1
At the 2 h time point on Day 4, skin areas 5 and 6 will be UVR irradiated with 2 MED. LEPs, VAS-P, erythema (by skin reflection spectrometry (SRS)) and pin prick hyperalgesia (by weighted needle threshold (WNT)) were evaluated before and 1, 2, 3, 6 and 9 h after UVR. At the same time points, anti-inflammatory effects on the areas of UVR will be evaluated by SRS with the a-value being the measure of “redness”. Subjects returned on Day 5 for the 5th IMP application. One hour after IMP application and 24±1 h after UVR, LEPs and VAS-Pain were evaluated on areas 1-6. In addition, erythema (SRS) and pin prick hyperalgesia (WNT) were evaluated on areas 5 and 6. Subjects returned for a follow-up visit at Day 9 (±1).
VAS-Pain is a subjective assessment of pain, which was used for all skin conditions. Electronic nociceptive scoring with electronic 100-mm visual analog scales (VASs) for post-laser pain (VAS-P) was assessed on a tablet PC, which allowed the subject to discriminate pain severity between no pain and strong pain using a 0 to 100 mm scale. The measurements were taken after each laser session—summarizing the overall impression of the “painfulness” of the whole session.
The statistical analysis was based on the evaluation of treatment related differences at the individual time points and comparison of the AUC (Area Under the Curve) parameter derived from the efficacy endpoints.
The timepoints to be included in the calculation of the AUC depended on the objective. • 1. For evaluating objective a) and b) (treatment areas 1-4), two AUC calculations were used • a. All evaluations at 1 h after IMP application at Days 1-5, the assessment at predose on Day 1 served as reference. • b. Evaluations at all timepoints at Day 4 and before IMP application on Day 5 • 2. For evaluating objective c) and d) all timepoints at Day 4 and the assessments before IMP application on Day 5 will be included in the calculation of the AUC related to treatment areas (treatment area 5 and 6).
Those parameters were analysed using a linear mixed regression model. The regression included the classification variable treatment (A1, A2, B1 and B2 resp. A3 and B3) and the corresponding baseline value (pre dose measurement on normal skin) as fixed effects and the intercept over the subjects as a random effect.
All treatment differences with 95% confidence intervals were estimated from this model. The null-hypotheses that these differences are equal to zero (no difference between active treatments and placebo) were tested at the 5% level against the two-sided alternatives.
Data used from study described in Example 2 for calculating Cohen's D were taken at the 1, 6 and 9 hour time points on day 4 of the study and are shown in the table below. The standard deviation (SD) was derived from the standard error (SE) taking into account the sample size of n=24.

healthy volunteers [8] = assay: tolerability in the clinical study; conditions: normal skin, skin with a compromised barrier function and inflamed skin
mice = conditions: topical, WO 2018/048779; cited from earlier work
[9] = Tramadol 100 mg (oral), Schaffler et al. (2013)
[10] = Duloxetin 60 mg (oral), Schaffler et al. (2017)
[11] = Lacosamide 60 mg (oral), Schaffler et al. (2017)
[12] = Pregabalin 150 mg (oral), Schaffler et al. (2017)
[13] = Etoricoxib 90 mg (oral), Schaffler et al. (2013)

In the case of `COc1cccc(C2(O)CCCCC2CN(C)C)c1` (centres unmarked) [Tramadol], the “VAS Mean Difference” value (healthy volunteers [1]; [9]) is listed as 7.1 mm and the “PtP Mean Difference” value (healthy volunteers [2]; [9]) is listed as 4.5 μV.
In the case of `CNCC[C@H](Oc1cccc2ccccc12)c1cccs1` [Duloxetin], the “VAS Mean Difference” value (healthy volunteers [1]; [10]) is listed as 2.2 mm and the “PtP Mean Difference” value (healthy volunteers [2]; [10]) is listed as 1.7 μV.
For `C[C@H](NC(=O)Cn1cnc2ccc(F)c(F)c21)c1ccc(C(C)(C)C)cc1` [Compound 1], the “PtP Mean Difference” value (healthy volunteers [3]; normal skin) was 6.8 μV, the “analgesic effects of topical treatment” value (healthy volunteers [3]; normal, optimized and UVR inflamed skin) was “highly superior to placebo” and the “PtP Mean Difference” value (healthy volunteers [3]; optimised skin) was 9.1 μV. For the same compound, the “Cohen's d, VAS (vs basel.)” value ([4]; 01:00 h after IMP) was 0.66, the “Cohen's d, VAS (vs basel.)” value ([4]; 01:30 h after IMP) was 0.12 and the “Cohen's d, VAS (vs basel.)” value ([4]; 02:30 h after IMP) was “in favour”. For the same compound, the “Cohen's d, VAS (vs basel.)” value ([4]; 03:00 h after IMP) was “in favour”, the “Cohen's d, VAS (vs basel.)” value ([4]; 04:00 h after IMP) was “in favour” and the “Cohen's d, VAS (vs basel.)” value ([4]; 05:00 h after IMP) was “in favour”. For the same compound, the “Cohen's d, VAS (vs basel.)” value ([4]; 06:00 h after IMP) was “in favour”, the liver enzymes [5] was “elevations in liver enzymes” and the “Cohen's d, VAS (0-5 min)” value (healthy volunteers [6]; 01:08 h after IMP) was 0.04. For the same compound, the “Cohen's d, VAS (0-5 min)” value (healthy volunteers [6]; 01:38 h after IMP, listed as AZD1386) was 0.3, the “Cohen's d, VAS (0-5 min)” value (healthy volunteers [6]; 02:38 h after IMP) was 0.06 and the “Cohen's d, VAS (0-5 min)” value (healthy volunteers [6]; 03:38 h after IMP) was 0.22. For the same compound, the “Cohen's d, VAS (0-5 min)” value (healthy volunteers [6]; 05:08 h after IMP) was 0.15, the “time of significant analgesic effects after oral administration” value (healthy volunteers [6]; oral, consistent across the two legacy studies) was 1 to 1.5 h and the “Mean (LEP induced VAS pain)” value (healthy volunteers [7]; Day 4, 1 h, Normal skin) was 32.63 mm. For the same compound, the “Mean (LEP induced VAS pain)” value (healthy volunteers [7]; Day 4, 1 h, Optimized skin) was 22.56 mm, the “Mean (LEP induced VAS pain)” value (healthy volunteers [7]; Day 4, 6 h, Normal skin) was 32.41 mm and the “Mean (LEP induced VAS pain)” value (healthy volunteers [7]; Day 4, 6 h, Optimized skin) was 28.01 mm. For the same compound, the “Mean (LEP induced VAS pain)” value (healthy volunteers [7]; Day 4, 9 h, Normal skin) was 35.64 mm, the “Mean (LEP induced VAS pain)” value (healthy volunteers [7]; Day 4, 9 h, Optimized skin) was 32.27 mm and the “VAS Mean Difference” value (healthy volunteers [7]; normal skin) was 13.2 mm. The “VAS Mean Difference” value (healthy volunteers [7]; optimised skin) was 18.7 mm and the tolerability (healthy volunteers [8]) was “well tolerated”.
In the case of `CC(C)(C)c1ccc(/C=C/C(=O)Nc2ccc3c(c2)OCCO3)cc1` [AMG9810], the capsaicin-induced wound licking (mice) is given as “reduced”.
For `COC[C@@H](NC(C)=O)C(=O)NCc1ccccc1` [Lacosamide], the “VAS Mean Difference” value (healthy volunteers [1]; [11]) is listed as 2.1 mm and the “PtP Mean Difference” value (healthy volunteers [2]; [11]) is listed as 0.5 μV.
In the case of QRFSR [opiorphin], the capsaicin-induced wound licking (mice) is given as “reduced”.
For `CC(C)C[C@H](CN)CC(=O)O` [Pregabalin], the “VAS Mean Difference” value (healthy volunteers [1]; [12]) is given as 9.1 mm and the “PtP Mean Difference” value (healthy volunteers [2]; [12]) is given as 2.7 μV.
In the case of `Cc1ccc(-c2ncc(Cl)cc2-c2ccc(S(C)(=O)=O)cc2)cn1` [Etoricoxib], the “VAS Mean Difference” value (healthy volunteers [1]; [13]) is listed as 1.2 mm and the “PtP Mean Difference” value (healthy volunteers [2]; [13]) is listed as 0.2 μV.
